Structures are written as SMILES.

A word on the melting point: it is the temperature of the solid-liquid transition. As to `CC(=O)NCCc1coc2ccc3c(c12)OCCO3`, the melting point came to 112 °C.

`Cc1cc(F)ccc1-c1nc(NC(C)(CO)CO)nc2c1ccc(=O)n2-c1ccccc1F` showed a melting point of 160 to 162 °C.

With `CC(C)CSc1cc(C(=O)O)cc(S(N)(=O)=O)c1Oc1ccccc1`, the melting point lay within 193 to 194 °C.

With `O=C(O)c1ncc(Br)cc1Br`, the melting point fell in the range of 170 to 171 °C.

Consider `Cc1ccc(S(=O)(=O)N2Cc3csc(C)c3C2)cc1`, for which the melting point lay in the range of 158 to 160 °C.

The molecule `CN1C(=O)CN(c2ccc(F)cc2)NC1=O` returned a melting point of 205 to 206 °C.

The molecule `COc1cc(OCc2ccccc2)ccc1-c1nc2ncccc2[nH]1` displayed a melting point of 244 °C.

Turning to `Cc1cc(NC(=O)C(C)(O)COc2ccc(CC#N)cc2)ccc1[N+](=O)[O-]` (configuration not stated), the melting point lay within 143 to 145 °C.

For `CCOc1ccc(-c2nc(-c3cccc(C(C#N)C(=O)OC)n3)cs2)cc1OCC` (configuration not stated), the melting point is 240 to 242 °C.

As for `CC(C)c1onc(-c2ccccc2)c1S(=O)(=O)c1ccc(O)cc1`, the melting point is 173 to 174 °C.

`CC(=O)N1CCC(=O)NCc2ccccc21` had a melting point of 236 to 239 °C.

The molecule `Cc1cccc(NC(=O)NC2N=C(c3ccccc3F)c3cccc(C)c3N(CC(=O)c3ccccc3C)C2=O)c1` (configuration not stated) displayed a melting point of 190 to 196 °C.

The molecule `O=C(c1ccc(Cn2cnc3ccncc32)cc1)N1CCOCC1` gave a melting point of 143 to 144 °C.

For `O=C(O)COc1ccc(OCCC(c2ccccc2)(c2ccccc2)c2ccccc2)cc1`, the melting point was 66 to 68 °C.

`Fc1cc2c(Nc3ccc(OCc4cccc(Cl)c4)c(Cl)c3)ncnc2cn1`: the melting point was 196 to 198 °C.

In turn, `Cc1cc(CCCCCOc2c(C)cc(-c3nnn(CCO)n3)cc2C)on1` yielded a melting point of 69 to 70 °C.

For the molecule `CCOC(=O)Oc1ccc(/C(=C(/CC)c2ccccc2)c2ccc(/C=C/C(=O)O)cc2)cc1`, the melting point is 135 to 136 °C.

Turning to `Cc1cc(OC(C)C)ccc1N1CCCn2c1nc1c(Cl)ccc(C(OC(F)F)C(F)(F)F)c12` (configuration not stated), the melting point lay within 198 to 204 °C.

The molecule `COc1cc2cnnc(N3CCC4(CC3)OCCCO4)c2cc1OC` returned a melting point of 194 to 196 °C.

Molecule `CCCCc1nc(SCCCCCC(=O)O)c(C(=O)O)n1Cc1cc2c(cc1Cl)OCO2` gave a melting point of 128 °C.

`CCOc1cc(C(=O)O)cc(N)c1-c1ccccc1` displayed a melting point of 138 °C.

The molecule `CCCCCCCN(CCCCCSc1nc(-c2ccccc2)c(-c2ccccc2)[nH]1)C(=N)Nc1ccccc1` came in with a melting point of 135 to 136 °C.

As to `Cn1cc(C2CCC(=O)CC2)c2cc(C#N)ccc21`, the melting point was in the range of 150 to 152 °C.

The molecule `CCCc1sc(-c2ccccc2)nc1OC(=O)NC` returned a melting point of 55 to 58 °C.

In turn, `CC1CCC(C(C)C)C(OC(=O)N[C@@]2(C)CCC(=O)NC2=O)C1` (some centres not stated) yielded a melting point of 170 to 172 °C.

On to `CC(C)N1CC(C(=O)c2ccc(Cc3ccc(F)cc3)o2)=C(O)C1=O`, for which the melting point is 155 to 157 °C.

`CC(C)NNC(=O)NC1c2ccccc2Oc2ccccc21` registered a melting point of 162 °C.

`N#Cc1nn(-c2c(Cl)cc(C(F)(F)F)cc2Cl)c(N)c1-c1ccc(Br)cc1` registered a melting point of 242 to 244 °C.

On to `CCCCCCCCON1C(C)(C)CC(NC(=O)CCc2cc(-n3nc4ccccc4n3)c(O)c(C(C)(C)C)c2)CC1(C)C`, for which the melting point was 153 to 159 °C.

`N#Cc1ccc(Cc2ccc(O)cc2)cc1` came in with a melting point of 163 to 164 °C.

The molecule `CC(C)Oc1ccc(C(=O)n2nc(Nc3ccc(OCc4ccccc4)cc3)nc2N)cc1` returned a melting point of 79 to 81 °C.

In the case of `CN1C(=O)C(C(=O)Nc2ccc(Oc3nnc(C(C)(C)C)o3)cc2)C(=O)N(C)C1=O`, the melting point was in the range of 200 to 203 °C.

Molecule `CCCCCc1c(C(=O)OCC)oc2cc(OC)ccc12` displayed a melting point of 38 to 41 °C.

`CCc1c(-c2ccc(OCc3ccccc3)cc2)c2c(COC)cc3c(OCc4ccccc4)ccc1n32`: the melting point fell in the range of 127 to 130 °C.

`O=CNNC(=O)N1Cc2ccccc2Oc2ccc(Cl)cc21` displayed a melting point of 177 to 181 °C.

In turn, `COc1cccc(Cc2ccccc2)c1C(=O)O` gave a melting point of 159 to 161 °C.

With `CC(C)Oc1ccc2nc(COc3ccc(CC4SC(=O)N(C(c5ccccc5)(c5ccccc5)c5ccccc5)C4=O)cc3)n(C)c2n1` (configuration not stated), the melting point was 90 to 100 °C.

`NC(=O)c1[nH]c2ccc(C(O)(C(F)(F)F)C(F)(F)F)cc2c1-c1ccccc1` had a melting point of 220 to 224 °C.

The molecule `CCOC(=O)CNC(=O)COc1ccc(CCl)cc1` came in with a melting point of 88.5 to 90.5 °C.

As for `CCOC(=O)Nc1ccc(C2=NN(c3nnc(C)s3)[C@H](C)Cc3cc4c(cc32)OCO4)cc1C`, the melting point is 241 to 244 °C.

The molecule `COc1ccc(C2(C#N)CCC(=O)CC2)c2c1oc1ccccc12` displayed a melting point of 199 to 202 °C.

The molecule `CCC1(c2cc(NC(=O)c3c(OC)cccc3OC)no2)CCCCC1` displayed a melting point of 179 to 181 °C.

Consider `CCOC(=O)/C(=N/OCc1ccccc1)c1ccc(OCCOc2ccc3ccccc3c2)s1`, for which the melting point lay in the range of 111 to 112 °C.

For the molecule `CC(=O)N1CCN(Cc2ccc(O)cc2)CC1`, the melting point was 130 to 132 °C.

In turn, `N#Cc1coc2ccc3ccc(O)cc3c2c1=O` yielded a melting point of 289 to 292 °C.

As to `CCOC(=O)Oc1ccc(/C=C(\C)c2ccc3c(c2)SC(C)(C)S3)cc1`, the melting point lay within 93 to 94 °C.

`CCCCCCCCCCCCCCCC(=O)NO` returned a melting point of 100 to 101 °C.

The molecule `CCOC(=O)c1cc2c(nc1COc1ccc(C(=O)O)cc1)CCCCC2` showed a melting point of 135 to 136 °C.

Molecule `CC(C)=CCCN1c2ccccc2CN1[N+](=O)[O-]` came in with a melting point of 51 to 52 °C.

On to `CN(C)CCc1c[nH]c2ccc(Oc3ccc(Br)cc3)cc12`, for which the melting point lay in the range of 160 to 162 °C.

Take `COCCN(CCOC)c1ccc(Nc2ncc3c(C)c(C(C)=O)c(=O)n(C4CCCC4)c3n2)nc1`: the melting point worked out at 138 °C.

Turning to `CCOC(=O)C=Cc1ccc(OCc2nc(-c3ccco3)oc2C)c(OC)c1`, the melting point is 142 to 143 °C.

Molecule `CCOC(=O)CNC(=O)NCCCSc1nccc(NC(N)=NCC(F)(F)F)n1` had a melting point of 165 to 166 °C.

Turning to `CNC(=O)N1CC(Oc2cccc(C)c2)C1`, the melting point is 138 to 142 °C.

As to `CN1CCN(C2=Nc3ccc(Cl)cc3Cn3cccc32)CC1`, the melting point was in the range of 186 to 188 °C.

`CC1Cc2cc3c(cc2C(c2ccc([N+](=O)[O-])cc2)=NN1c1nnn[nH]1)OCO3` (configuration not stated) displayed a melting point of 263 to 264 °C.

Regarding `COc1ccc(-c2nc3cc(Cl)ccc3o2)cc1OC`, the melting point was in the range of 142 to 145 °C.

As to `CCCCc1ccc(OC)c(-c2csc(NC(=O)c3ccc(C(=O)CCN4CCC(NC(C)=O)C4)cc3)n2)c1` (configuration not stated), the melting point amounted to 112 °C.

For `CC(=CC(=O)NC(C)(C)C)OC(=O)c1cc(S(C)(=O)=O)c(Cl)cc1NCc1ccco1`, the melting point fell in the range of 140 to 145 °C.

In turn, `Cn1ccc(NC(=O)c2cc(C#N)cc(C(F)(F)F)n2)n1` came in with a melting point of 190 °C.

Turning to `CCCC1=NN=C2C1=C1C=CC=CN1C(=O)C2C#N` (configuration not stated), the melting point lay in the range of 298 to 300 °C.

Molecule `O=C(Nc1cccnc1)N1CCc2cc(Cl)c(Cl)cc21` gave a melting point of 236 to 238 °C.

`COCCN1C(=O)CCCc2cc(N)ccc21`: the melting point was in the range of 134 to 135 °C.

The molecule `CC(C)(Oc1ccc(CCCc2cc(-c3ccccc3)no2)cc1)C(=O)O` returned a melting point of 66 to 70 °C.

The molecule `O=C1N(Cc2cncc(F)c2)c2ccccc2C12COc1cc3c(cc12)OCCO3` (configuration not stated) showed a melting point of 197 to 200 °C.

`O=S(=O)(c1ccc(Cl)c(CBr)c1Cl)N1CCCC1` came in with a melting point of 115 °C.

`N#Cc1c(Sc2ncc([N+](=O)[O-])s2)nsc1Sc1ncc([N+](=O)[O-])s1` displayed a melting point of 197 to 200 °C.

As to `CC(C)C(CS(=O)(=O)c1ccc(-c2cccc(CNC(=O)c3nc4ccccc4c(=O)[nH]3)c2)cc1)N(O)C(N)=O` (configuration not stated), the melting point was 193 to 195 °C.

With `O=C1CCCN1c1cccc2cccnc12`, the melting point was in the range of 118 to 120 °C.

With `CCOc1cc(CF)nc2nc(S(=O)(=O)Nc3c(Cl)ccc(C)c3Cl)nn12`, the melting point was 197 to 200 °C.

`O=C(O)CCn1c(=O)c(=O)[nH]c2cc([N+](=O)[O-])ccc21` gave a melting point of 148 to 156 °C.

In the case of `CN1C(=O)C(C)(C)N=C(c2ccccc2F)c2cc([N+](=O)[O-])cc(Cl)c21`, the melting point was in the range of 237 to 238 °C.

In turn, `Cc1c(Br)c2cnnc(OCc3ccccc3)c2n1Cc1ccccc1` showed a melting point of 122 to 123 °C.

On to `C=CCOc1ccc2cc(S(N)(=O)=O)sc2c1`, for which the melting point was in the range of 101 to 102 °C.

With `CCCCc1nc2c(N)nc(C)c(C)c2n1CCCCNS(=O)(=O)N(C)C`, the melting point lay within 130 to 131 °C.

For the molecule `CN(C)CCCC1CCCN(C(=O)N2c3ccccc3C(=O)Nc3cccnc32)C1` (configuration not stated), the melting point lay in the range of 115 to 117 °C.

Turning to `COC(=O)c1ccc(O)c(-n2cccc2C=O)c1`, the melting point fell in the range of 147 to 148 °C.

`CC1(CN2CCC(C(=O)c3ccc(C(F)(F)F)cc3)CC2)Cn2cc([N+](=O)[O-])nc2O1` (configuration not stated): the melting point lay in the range of 172 to 174 °C.

In turn, `O=C(c1ccc(C(F)(F)F)cc1O)N1CCN(c2ccc(OC[C@H]3CCn4cc([N+](=O)[O-])nc4O3)cc2)CC1` registered a melting point of 217 to 220 °C.

On to `CC(C(=O)Nc1ccc2c(c1)OCO2)N1CCN(c2ccccn2)CC1` (configuration not stated), for which the melting point fell in the range of 189 to 191 °C.

For `CCOC(=O)c1cnc2onc(C)c2c1O`, the melting point was 150 to 152 °C.

`N#Cc1ccc2oc(CO)cc2c1` gave a melting point of 113 to 114 °C.

Turning to `O=C(O)C1=Cc2ccc(C(F)(F)F)cc2OC1C(F)(F)F` (configuration not stated), the melting point lay in the range of 190 to 194 °C.

As to `CCCc1c(OCCCOc2cc(NC(=O)C(=O)O)c(C(F)(F)F)cc2Cl)ccc(C(C)=O)c1O`, the melting point lay in the range of 173 to 174 °C.

In turn, `OC1(c2ccc(F)cc2)CCC2(CC1)OCCO2` returned a melting point of 133 to 135 °C.

Molecule `CCOC(=O)c1sc2cccc(O)c2c1C` showed a melting point of 183 to 184 °C.

Consider `O=Cc1cc(OCCCC(=O)N(CCO)CCCCC2CCCC2)ccc1[N+](=O)[O-]`, for which the melting point is 107 to 108 °C.

Source of the values: a melting point compilation (Tetko et al.; mined from patent text by program, amines drawn as free bases though some values may be those of a salt).
